Assays:
threadworm (C. elegans) [1] = assay: Neurotoxic substance administered to nematodes in liquid medium; behavior or morphology phenotype observed; type: in vivo, Caenorhabditis elegans; details: for behavioral anomalies or changes in morphology after administration of neurotoxic compound: nematodes (threadworms), general finding
Text: The response to the administration of neurotoxic substances which act on the central nervous system was investigated in nematodes of the genus Caenorhabditis and, in particular, in Caenorhabditis elegans. In this threadworm, a characteristic phenotype, which is expressed, for example, in movement disturbances, a reduced number of progeny or morphological changes,; is observed both in the larval stages L1, L2, L3 and L4 (see “The Nematode Caenorhabditis elegans”; Wood et al., Cold Spring Harbor Laboratory, 1988) and in the adult stage following incubation with a neurotoxic substance. This can be ascertained by observing the phenotype microscopically, by determining the number of progeny per animal and time period or by detecting nerve cells which have been labeled with particular dyes (e.g. GFP fusion proteins) and whose color changes after they have been acted upon by a neurotoxic substance.
(§1) Per assay, about 100 threadworm (C. elegans) test animals at a defined stage of development (e.g. L1 larval stage) were incubated in liquid medium at constant temperature (e.g. 20° C.). […]
This can be expressed in severe movement disturbances, a reduced number of progeny or morphological changes.

threadworm (C. elegans) [2] = assay: Preincubation with test material before MPTP; reversion or prevention of the MPTP phenotype; type: in vivo, Caenorhabditis elegans; details: 100 C. elegans; three days of preincubation with L-DOPA, MPTP added on the third day; observed on day 6 (Figure B)
Text: It is possible to expose the nematodes to the materials to be investigated in a wide variety of ways. For example, it is possible to culture the animals in Petri dishes containing an agar which contains neurotoxic substances, on the one hand, and the substances of interest on the other. However, it is also possible to bathe the animals, in a simple manner, in the materials to be investigated. As well as being particularly simple, this variant also makes it possible to standardize the concentrations more easily and to achieve a higher throughput in a screening system. For an investigation, use is made of populations of the animals, which populations are then incubated with different solutions of the materials and at different concentrations. […] The observation, namely the reversion or prevention of the behavioral anomaly or the morphological change following neurotoxin treatment, makes it possible to draw a conclusion with regard to the possible activity and site of action of the material whose suitability as a drug is under investigation.
as §1

Row | SMILES | characteristic phenotype (severe movement disturbances, reduced number of progeny or morphological changes) (threadworm (C. elegans) [1]; about 100 C. elegans, e.g. L1 larval stage, liquid medium, e.g. 20° C., MPTP 16 to 500 μg/ml, observed e.g. on day 6 (Figure A)) | behavioral anomalies or changes in morphology after administration of neurotoxic compound (threadworm (C. elegans) [1]) | expression of the phenotype brought about by MPTP after incubation with test material (threadworm (C. elegans) [2])
1 | CN1CC=C(c2ccccc2)CC1 [MPTP, 1-methyl-4-phenyl-1,2,3,6-tetrahydropyridine] | a characteristic phenotype was observed | exhibit behavioral anomalies or changes in their morphology | 
2 | NCCc1cc(O)c(O)cc1O [6-OHDA, 6-hydroxy-dopamine] |  | exhibit behavioral anomalies or changes in their morphology | 
3 | N[C@@H](Cc1ccc(O)c(O)c1)C(=O)O [L-DOPA, L-3,4-dihydroxyphenylalanine] |  |  | the phenotype which is brought about by MPTP is not expressed

— US20030108893A1, “Method for establishing neurogically relevant properties of a material” (priority 1999, published 2003)
